Results taken from patent US5550145A, “Potentiation of antimicrobial effects” (Bioglan AB, priority 1992, dated 1996).
In brackets after ≈: the same amount, converted by molar mass.

Experiments:
T. rubrum = assay: MIC (minimum inhibitory concentration) determination; type: cell-based
P. ovale = assay: as above; type: cell-based
C. albicans = assay: as above; type: cell-based
S. epidermis = assay: as above; type: cell-based
S. aureus = assay: as above; type: cell-based
aerobic bacteria = assay: Killing effect; type: cell-based; details: aqueous solutions of tinidazole; test not described
Procedure: The composition was prepared as in Example 4. […] In particular, the product is usable for disease states such as acne and seborrhoea.

[1] = generally accepted; cited from earlier work
Gram positive bacteria = details: effects demonstrated only on Gram positive bacteria; cited from earlier work

OCCCCCO [1,5-pentanediol solution, 1,5-pentanediol]
MIC value (T. rubrum): 10 mg/mL (≈ 96 mM)
MIC value (P. ovale): 20 mg/mL (≈ 192 mM)
MIC value (C. albicans): 40 mg/mL (≈ 384 mM)
MIC value (S. epidermis): 50 mg/mL (≈ 480 mM)
MIC value (S. aureus): 50 mg/mL (≈ 480 mM)

CCS(=O)(=O)CCn1c([N+](=O)[O-])cnc1C [tinidazole]
effectiveness of aqueous solutions against aerobic bacteria (aerobic bacteria): not effective

CCCCCCCCCCCC(=O)OCC(O)CO (stereo not shown) [monolaurin, monoglyceride of lauric acid]
toxicity [1]: completely non-toxic
antimicrobial properties per se (Gram positive bacteria): exhibit certain antimicrobial properties

CCCCCCCCCCCCCC(=O)OCC(O)CO (stereo not shown) [monomyristin, monoglyceride of myristic acid]
toxicity [1]: completely non-toxic
antimicrobial properties per se (Gram positive bacteria): exhibit certain antimicrobial properties
